Results as given in patent publication US7115642B2, “Substituted diphenyl isoxazoles, pyrazoles and oxadiazoles useful for treating HCV infection” (priority 2003, dated 2006).

Test system: HCV replicon (5-2 Luc replicon-comprising cells)
Test: HCV replicon assay (luciferase)
Type: cell-based, Hepatitis C virus
Conditions: 5-2 Luc replicon cells, luciferase readout; read-out: Replicon IC50
Excerpt: In one embodiment, the inhibitory activity of the compounds can be confirmed in a replicon assay that assesses the ability of a test compound to block or inhibit HCV replication in replicon cells. One example of a suitable replicon assay is the liver cell-line Huh 7-based replicon assay described in Lohmann et al., 1999, Science 285:110–113. A specific example of this replicon assay which utilizes luciferase translation is provided in the Examples Section. In one embodiment of this assay, the amount of test compound that yields a 50% reduction in translation as compared to a control cell (IC50) may be determined.
The inhibitory activity of certain exemplary compounds of the invention was confirmed using an HCV replicon assay. The HCV replicon can include such features as the HCV 5′ untranslated region including the HCV IRES, the HCV 3′ untranslated region, selected HCV genes encoding HCV polypeptides, selectable markers, and a reporter gene such as luciferase, GFP, etc. In the assay, actively dividing 5-2 Luc replicon-comprising cells (obtained from Ralf Bartenschlager; see Lohmann et al., 1999, Science 285:110–113) were seeded at a density of between about 5,000 and 7,500 cells/well onto 96 well plates (about 90 μl of cells per well) and incubated at 37° C. and 5% CO2 for 24 hours. Then, the test compound (in a volume of about 10 μl) was added to the wells at various concentrations and the cells were incubated for an additional 24 hours before luciferase assay. Briefly, the Bright-Glo reagent was diluted 1:1 with PBS and 100 μl of diluted reagent was added to each well. After 5 min of incubation at room temperature, luciferin emission was quantified with a luminometer. In this assay, the amount of test compound that yielded a 50% reduction in luciferase activity (IC50) was determined.
In TABLE 1, a value of “+” indicates an IC50 of 10 μM or less in the specified assay; a value of “−” indicates an IC50 of greater than 10 μM in the specified assay.

| SMILES | IC50 [µM] |
| --- | --- |
| CN(c1cccc(Cl)c1-c1cc(-c2cccc(NC(=O)C(Cl)Cl)c2)on1)C1CCN(S(C)(=O)=O)CC1 [Compound 583] | < 10 |
| CCNC(=O)N1CCC(N(C)c2cccc(Cl)c2-c2cc(-c3cccc(NC(=O)C(Cl)Cl)c3)on2)CC1 [Compound 584] | < 10 |
| CC(=O)N1CCCC(Oc2cccc(Cl)c2-c2cc(-c3cccc(NC(=O)C(Cl)Cl)c3)on2)C1 (stereo not drawn) [Compound 585] | < 10 |
| CS(=O)(=O)N1CCCC(Oc2cccc(Cl)c2-c2cc(-c3cccc(NC(=O)C(Cl)Cl)c3)on2)C1 (stereo not drawn) [Compound 586] | < 10 |
| CCNC(=O)N1CCCC(Oc2cccc(Cl)c2-c2cc(-c3cccc(NC(=O)C(Cl)Cl)c3)on2)C1 (stereo not drawn) [Compound 587] | < 10 |
| O=C(Nc1cccc(-c2cc(-c3c(Cl)cccc3N3CCC(NCc4ccccn4)CC3)no2)c1)C(Cl)Cl [Compound 588] | < 10 |
| CC(C)(C)OC(=O)NCC1CCN(c2cccc(Cl)c2-c2cc(-c3cccc(NC(=O)C(Cl)Cl)c3)on2)CC1 [Compound 589] | < 10 |
| COC(=O)C1CC(Oc2cccc(Cl)c2-c2cc(-c3cccc(NC(=O)C(Cl)Cl)c3)on2)CN1C(=O)OC(C)(C)C (stereo not drawn) [Compound 590] | < 10 |
| COC(=O)C1CC(Oc2cccc(Cl)c2-c2cc(-c3cccc(NC(=O)C(Cl)Cl)c3)on2)CN1 (stereo not drawn) [Compound 591] | < 10 |
| CC(C)(C)OC(=O)N1CCC(Oc2cccc(Cl)c2-c2cc(-c3cccc(NC(=O)C(Cl)Cl)c3)on2)C1 (stereo not drawn) [Compound 592] | < 10 |
| O=C(Nc1cccc(-c2cc(-c3c(Cl)cccc3OC3CCNC3)no2)c1)C(Cl)Cl (stereo not drawn) [Compound 593] | < 10 |
| CC(=O)N1CCC(Oc2cccc(Cl)c2-c2cc(-c3cccc(NC(=O)C(Cl)Cl)c3)on2)C1 (stereo not drawn) [Compound 595] | < 10 |
| CS(=O)(=O)N1CCC(Oc2cccc(Cl)c2-c2cc(-c3cccc(NC(=O)C(Cl)Cl)c3)on2)C1 (stereo not drawn) [Compound 596] | < 10 |
| CCNC(=O)N1CCC(Oc2cccc(Cl)c2-c2cc(-c3cccc(NC(=O)C(Cl)Cl)c3)on2)C1 (stereo not drawn) [Compound 597] | < 10 |
| C[N+](C)(C)CCOc1cccc(Cl)c1-c1cc(-c2cccc(NC(=O)C(Cl)Cl)c2)on1 [Compound 598] | < 10 |
| CCNC(=O)Oc1cccc(Cl)c1-c1cc(-c2cccc(NC(=O)C(Cl)Cl)c2)on1 [Compound 600] | < 10 |
| CN(C)C(=O)Oc1cccc(Cl)c1-c1cc(-c2cccc(NC(=O)C(Cl)Cl)c2)on1 [Compound 601] | < 10 |
| O=C(Nc1cccc(-c2cc(-c3c(Cl)cccc3OC(=O)N3CCOCC3)no2)c1)C(Cl)Cl [Compound 602] | < 10 |
| O=C(Nc1cccc(-c2cc(-c3c(Cl)cccc3OP(=O)(O)O)no2)c1)C(Cl)Cl [Compound 603] | < 10 |
| O=C(Nc1cccc(-c2cc(-c3c(Cl)cccc3OCc3ccncc3)no2)c1)C(Cl)Cl [Compound 604] | < 10 |
| O=C(Nc1cccc(-c2cc(-c3c(Cl)cccc3OCc3cccnc3)no2)c1)C(Cl)Cl [Compound 605] | < 10 |

| SMILES | IC50 [µM] |
| --- | --- |
| CCCNC(=O)Oc1cccc(Cl)c1-c1cc(-c2cccc(NC(=O)C(Cl)Cl)c2)on1 [Compound 606] | < 10 |
| COP(=O)(O)Oc1cccc(Cl)c1-c1cc(-c2cccc(NC(=O)C(Cl)Cl)c2)on1 [Compound 607] | < 10 |
| N#Cc1ccccc1-c1cc(-c2cccc(NC(=O)C(Cl)Cl)c2)on1 [Compound 610] | < 10 |
| CN1CCN(c2ccccc2-c2cc(-c3cccc(NC(=O)C(Cl)Cl)c3)on2)CC1 [Compound 611] | < 10 |
| O=C(Nc1cccc(-c2cc(-c3ccccc3N3CCOCC3)no2)c1)C(Cl)Cl [Compound 612] | < 10 |
| N#Cc1cccc(F)c1-c1cc(-c2cccc(NC(=O)C(Cl)Cl)c2)on1 [Compound 613] | < 10 |
| O=C(Nc1cccc(-c2cc(-c3ccccc3N3CCN(c4ccccn4)CC3)no2)c1)C(Cl)Cl [Compound 614] | > 10 |
| O=C(Nc1cccc(-c2cc(-c3c(Cl)cccc3N3CCC4(CC3)OCCO4)no2)c1)C(Cl)Cl [Compound 615] | < 10 |
| O=C(Nc1cccc(-c2cc(-c3c(Cl)cccc3N3CCSCC3)no2)c1)C(Cl)Cl [Compound 616] | < 10 |
| CC(=O)N1CCN(c2cccc(Cl)c2-c2cc(-c3cccc(NC(=O)C(Cl)Cl)c3)on2)CC1 [Compound 617] | < 10 |
| N#CC1(c2ccccc2)CCN(c2cccc(Cl)c2-c2cc(-c3cccc(NC(=O)C(Cl)Cl)c3)on2)CC1 [Compound 618] | < 10 |
| O=C(Nc1cccc(-c2cc(-c3c(Cl)cccc3N3CCN(c4ccc(Cl)cc4)CC3)no2)c1)C(Cl)Cl [Compound 619] | < 10 |
| O=C(Nc1cccc(-c2cc(-c3c(Cl)cccc3N3CCN(c4cccc(Cl)c4)CC3)no2)c1)C(Cl)Cl [Compound 620] | < 10 |
| O=C(Nc1cccc(-c2cc(-c3ccccc3CO)no2)c1)C(Cl)Cl [Compound 621] | < 10 |
| O=C(Nc1cccc(-c2cc(-c3c(Cl)cccc3N3CCN(C(=O)OCc4ccccc4)CC3)no2)c1)C(Cl)Cl [Compound 622] | < 10 |
| CCOC(=O)N1CCN(c2cccc(Cl)c2-c2cc(-c3cccc(NC(=O)C(Cl)Cl)c3)on2)CC1 [Compound 624] | < 10 |
| NC(=O)C1CCN(c2cccc(Cl)c2-c2cc(-c3cccc(NC(=O)C(Cl)Cl)c3)on2)CC1 [Compound 625] | < 10 |
| CCN1CCN(c2cccc(Cl)c2-c2cc(-c3cccc(NC(=O)C(Cl)Cl)c3)on2)CC1 [Compound 627] | < 10 |
| CN(C)C(=O)CN1CCN(c2cccc(Cl)c2-c2cc(-c3cccc(NC(=O)C(Cl)Cl)c3)on2)CC1 [Compound 628] | < 10 |
| CN(C)CCN1CCN(c2cccc(Cl)c2-c2cc(-c3cccc(NC(=O)C(Cl)Cl)c3)on2)CC1 [Compound 630] | < 10 |
| O=C(Nc1cccc(-c2cc(-c3c(Cl)cccc3N3CCN(CC(=O)N4CCOCC4)CC3)no2)c1)C(Cl)Cl [Compound 631] | < 10 |

| SMILES | IC50 [µM] |
| --- | --- |
| CC(C)N1CCN(c2cccc(Cl)c2-c2cc(-c3cccc(NC(=O)C(Cl)Cl)c3)on2)CC1 [Compound 632] | < 10 |
| CC(=O)N1CCC(COc2cccc(Cl)c2-c2cc(-c3cccc(NC(=O)C(Cl)Cl)c3)on2)CC1 [Compound 634] | < 10 |
| CN(Cc1cccnc1)c1cccc(Cl)c1-c1cc(-c2cccc(NC(=O)C(Cl)Cl)c2)on1 [Compound 635] | < 10 |
| O=C(Nc1cccc(-c2cc(-c3c(Cl)cccc3N3CCc4ccccc4C3)no2)c1)C(Cl)Cl [Compound 636] | < 10 |
| O=C(Nc1cccc(-c2cc(-c3c(Cl)cccc3N3CCC(Cc4ccccc4)CC3)no2)c1)C(Cl)Cl [Compound 637] | < 10 |
| O=C(Nc1cccc(-c2cc(-c3c(Cl)cccc3N3CCC(c4ccccc4)CC3)no2)c1)C(Cl)Cl [Compound 638] | < 10 |
| CC(C)(C)OC(=O)N1CCC(CCOc2cccc(Cl)c2-c2cc(-c3cccc(NC(=O)C(Cl)Cl)c3)on2)CC1 [Compound 639] | < 10 |
| O=C(Nc1cccc(-c2cc(-c3c(Cl)cccc3OCCC3CCNCC3)no2)c1)C(Cl)Cl [Compound 640] | < 10 |
| O=C(Nc1cccc(-c2cc(-c3c(Cl)cccc3N3CCN(C(=O)C4CCC4)CC3)no2)c1)C(Cl)Cl [Compound 641] | < 10 |
| O=C(Nc1cccc(-c2cc(-c3c(Cl)cccc3N3CCN(C(=O)c4ccccc4)CC3)no2)c1)C(Cl)Cl [Compound 642] | < 10 |
| O=C(Nc1cccc(-c2cc(-c3c(Cl)cccc3N3CCN(C(=O)C4CCCO4)CC3)no2)c1)C(Cl)Cl (stereo not drawn) [Compound 643] | < 10 |
| CC(C)C(=O)N1CCN(c2cccc(Cl)c2-c2cc(-c3cccc(NC(=O)C(Cl)Cl)c3)on2)CC1 [Compound 644] | < 10 |
| CC(=O)N1CCC(CCOc2cccc(Cl)c2-c2cc(-c3cccc(NC(=O)C(Cl)Cl)c3)on2)CC1 [Compound 645] | < 10 |
| O=C(Nc1cccc(-c2cc(-c3c(Cl)cccc3OCCC3CCN(C(=O)c4ccccn4)CC3)no2)c1)C(Cl)Cl [Compound 646] | < 10 |
| O=C(Nc1cccc(-c2cc(-c3c(Cl)cccc3N3CCN(C(=O)CCc4ccccc4)CC3)no2)c1)C(Cl)Cl [Compound 647] | < 10 |
| CCC(=O)N1CCN(c2cccc(Cl)c2-c2cc(-c3cccc(NC(=O)C(Cl)Cl)c3)on2)CC1 [Compound 648] | < 10 |
| O=C(Nc1cccc(-c2cc(-c3c(Cl)cccc3N3CCN(Cc4ccncc4)CC3)no2)c1)C(Cl)Cl [Compound 650] | < 10 |
| O=C(Nc1cccc(-c2cc(-c3c(Cl)cccc3N3CCN4CCCC4C3)no2)c1)C(Cl)Cl (stereo not drawn) [Compound 651] | < 10 |
| O=C(Nc1cccc(-c2cc(-c3c(Cl)cccc3N3CCN(CCN4CCCC4)CC3)no2)c1)C(Cl)Cl [Compound 652] | < 10 |
| O=C(Nc1cccc(-c2cc(-c3c(Cl)cccc3N3CCN(CCc4ccccn4)CC3)no2)c1)C(Cl)Cl [Compound 653] | < 10 |
| O=C(Nc1cccc(-c2cc(-c3c(Cl)cccc3N3CCN(Cc4ccc(Cl)cc4)CC3)no2)c1)C(Cl)Cl [Compound 654] | < 10 |
